Experimental data reported in US4552878A, “Benzo- and thieno-triazine-1,2,3 ones-4” (Lipha, Lyonnaise Industrielle Pharmaceutique, priority 1982, dated 1985).
Structures can show the parent of a compound that is named as a salt.

What was measured:
[1] = Acute oral toxicity, lethal doses 50 (LD50); conditions: mouse, in vivo
[2] = system: central effects of 5-hydroxytryptophan; assay: Potentiation of the central effects of 5-hydroxytryptophan (5-HTP); assay type: in vivo; conditions: Mus musculus, ip; Swiss mice, I.P., 30 minutes before 300 mg/kg 5-HTP I.P.; observed 30 min later for 1 min; read-out: Potentiation of the 5-HTP ED50 DE50
Procedure: This potentiation objectifying the axonal blocking of the reabsorption of the seratonin at the serotoninergic nerve ends was studied by the method described by T. M. Pugsley and […] The mice are observed 30 min later, for 1 min, during which the following sterotyped movements are classified: extension of the hind paws, trembling, excitement, head shaking.

Row | Structure (SMILES) | LD50 [1] [mg/kg] | ED50 [2] [mg/kg]
1 | O=c1c2ccccc2nnn1CCCN1CCN(c2cccc(Cl)c2)CC1 [Example 1, [[(chloro-3 phenyl)-4 piperazinyl-1]-3 propyl]-3-3H-benzotriazine-1,2,3 one-4, hydrochloride] | > 3200 | 3
2 | O=c1c2ccccc2nnn1CCCN1CCN(c2ccccc2Cl)CC1 [Example 6, [[(Chloro-2 phenyl-4 piperazinyl-1]-3 propyl]3-3H-benzotriazine-1,2,3 one 4, hydrochloride] | – | 12
3 | Cc1ccccc1N1CCN(CCCn2nnc3ccccc3c2=O)CC1 [Example 9, [[(Methyl-2 phenyl)-4 piperazinyl-1]-3 propyl]-3-3H-benzotriazine-1,2,3 one-4 hydrochloride] | – | 5
4 | O=c1c2ccccc2nnn1CCCN1CCN(c2cccc(F)c2)CC1 [Example 10, [[(Fluoro-3phenyl)-4 piperazinyl-1]-3 propyl]-3H-benzotriazine-1,2,3 one-4, hydrochloride] | 1500 | 14
5 | O=c1c2ccccc2nnn1CCCN1CCN(c2ccccc2)CC1 [Example 11, [(Phenyl-4 piperazinyl-1)-3 propyl]-3-3H-benzotriazine-1,2,3 one-4 hydrochloride] | 1000 | 8
6 | COc1cccc(N2CCN(CCCn3nnc4ccccc4c3=O)CC2)c1 [Example 15, [[(Methoxy-3 phenyl)-4 piperazinyl-1]-3 propyl]-3-3H-benzotriazine-1,2,3 one-4] | – | 9
7 | COc1ccc(N2CCN(CCCn3nnc4ccccc4c3=O)CC2)cc1 [Example 16, [[(Methoxy-4 phenyl)-4 piperazinyl-1]-3propyl]-3-3H-benzotriazine-1,2,3 one-4] | – | 11
8 | O=c1c2ccc(Cl)cc2nnn1CCCN1CCN(c2cccc(Cl)c2)CC1 [Example 19, Chloro-7 [[(chloro-3 phenyl)-4 piperazinyl-1]-3 propyl]-3-3H-benzotriazine-1,2,3 one-4 hydrochloride] | – | 10
9 | Cc1ccc2nnn(CCCN3CCN(c4cccc(Cl)c4)CC3)c(=O)c2c1 [Example 20, [[(Chloro-3 phenyl)-1 piperazinyl-1]-3 propyl]-3 methyl-6-3H-benzotriazine-1,2,3 one-4, hydrochloride] | > 3200 | 8
10 | O=c1c2ccsc2nnn1CCCN1CCN(c2cccc(Cl)c2)CC1 [Example 23, [[(Chloro-3 phenyl)-4-piperazinyl-1]3 propyl]-3-3H-thieno[2,3-d]triazine-1,2,3 one-4 hydrochloride] | 1060 | 3
11 | O=c1c2ccccc2nnn1CCCN1CCN(c2ccc(F)c(Cl)c2)CC1 [Example 27, [[(Chloro-3 fluoro-4 phenyl)-4 piperazinyl-1]-3 propyl]-3-3H-benzotriazine-1,2,3 one-4 hydrochloride] | – | 8
12 | O=c1c2cc(Cl)ccc2nnn1CCCN1CCN(c2ccccc2)CC1 [Example 28, Chloro-6[(phenyl-4 piperazinyl-1)-3 propyl]-3-3H-benzotriazine-1,2,3 one-4 dihyrochloride] | – | 5
13 | COc1ccc(N2CCN(CCCn3nnc4ccccc4c3=O)CC2)cc1OC [Example 29, [[(Dimethoxy-3,4 phenyl)-4 piperazinyl-1]-3 propyl]-3-3H-benzotriazine-1,2,3 one-4 dihydrochloride] | – | 12
14 | Cl.O=c1n(CCCN2CCN(c3cccc(Cl)c3)CC2)nc2ccccn12 [Trazodone Hydrochloride, 2-[3-[4-(3-chlorophenyl)-1-piperazinyl]propyl]-1,2,4-triazolo[4,3-a]pyridin-3 (2H)-one hydrochloride, reference compound] | 650 | –
